This note sets out measurements from patent US11840531B2, “CDK8/19 inhibitors” (JOINT STOCK COMPANY “BIOCAD”, priority 2018, dated 2023).

Structures are written as SMILES. Where a name gives a salt, the structure may show the parent alone.

A short description of series [1]: Stability of the compounds in human blood plasma. The class given is in vitro ADME. Particulars: pooled human blood plasma, 10 μM, 4 hours at 37° C. The procedure: To assess the blood plasma stability of the compounds, we used pooled human blood plasma taken from ten healthy donors. The initial candidate solution (10 mM in DMSO) was diluted with pooled blood plasma to a concentration of 10 μm (test solution). The test solution was incubated in a dry block thermostat for 4 hours at 37° C. HPLC with Agilent 1200 liquid chromatography system (Agilent, USA) was employed to determine peak areas of the compounds in test samples, said peak areas corresponding to the initial test time (prior to incubation) and the final test time (after incubation in a dry block thermostat for 4 hours at 37° C.), proteins were preliminarily precipitated with acetonitrile. Chromatographic analysis was performed in a gradient elution regime with a flow rate of 1 mL/min Substance amount in % in a sample after thermostatting was determined.
The stability of the compounds was estimated. The compounds described herein show at least 90% chemical stability, i.e. they are chemically stable in human blood plasma (Table 2).

A short description of series [2]: Permeability through Caco-2 cell monolayer. Format: in vitro ADME. Particulars: human; for Papp A→B at 2 h, 10 μM: Caco-2, A→B, pH 6.5/7.4, 2 hour incubation; for efflux ratio at 2 h, 10 μM: Caco-2, Papp B-A/Papp A-B. The procedure:
Estimation of permeability through Caco-2 cell monolayer enables assessment of the ability of the substances to penetrate through biological membranes by means of both active and passive transport.
Intestinal epithelial cells Caco-2 were grown on filter inserts (pore size 0.4 jam, BD Falcon with High Density) for 21 days; monolayer integrity was then checked using Lucifer Yellow (Sigma-Aldrich, USA) according to the standard protocol. In A→B transfer (“intestinal lumen”-“blood stream” transfer), solutions of the test substances in buffer, pH 6.5 (HBSS, 10 mM HEPES, 15 mM glucose) at a concentration of 10 μM were added to the upper chamber; whereas the lower chamber was filled with buffer, pH 7.4 (HBSS, 10 mM HEPES, 15 mM Glucose, 1% BSA). In B→A transfer (“blood stream”-“intestinal lumen” transfer), the upper chamber was filled with buffer, pH 6.5, whereas the solutions of the test substances in buffer, pH 7.4, at a concentration of 10 μM were added to the lower chamber. A highly permeable substance propranolol was used as a control.
After 2 hour incubation at 37° C. under an atmosphere containing 5% CO2, the amounts of the test substances in the upper and lower chambers were measured by HPLC using an Agilent1200 HPLC system (Agilent, USA), proteins were preliminarily precipitated with acetonitrile. Chromatographic analysis was performed in a gradient elution regime with a flow rate of 1 mL/min. The peak areas corresponding to the compounds were detected on chromatograms. Based on the peak areas of a compound in the calibration standards, concentration of the compound in the initial solution and in the samples from upper chamber wells and lower chamber wells was measured.
Cellular permeability coefficient Papp was calculated by the formula: Papp=(Ca(t)*Va)/(Cd(0)*t*Area), where Papp is the effective permeability constant, m/s V is the volume of solution (0.8 ml in A→B test, 0.2 ml in B→A test), ml Area is the membrane surface area (0.33 cm^2), cm^2 t is the time of incubation (7200 sec), sec Cd(0) is the initial solution concentration, μM Ca(t) is the concentration of the solution after 2 hours (the concentration in the sample from the well of the lower chamber in A→B test; the concentration in the sample from the well of the top chamber in B→A test), μM
The value was calculated by the following formula: efflux=Papp B-A/Papp A-B, where Pape A-B-direct A→B test permeability value Papp B-A-reverse B→A test permeability value

In a further series the target is CDK8/Cyclin C (Homo sapiens (Human), UniProt P49336). Briefly: LanthaScreen binding to recombinant CDK8/Cyclin C. Particulars: TR-FRET, Tracer 236 10 nM, CDK8/Cyclin C 5 nM. The procedure:
Capability of compounds of the present invention to bind to CDK8 protein was detected using LanthaScreen (ThermoFisher) assay. We detected FRET signal proportional to the amount of CDK8-bound fluorescently-labeled ligand (Tracer 236) that competes with inhibitor for ATP binding site. We carried out the measurements in a 15 μl reaction volume using a 384-well plate (Corning, #CLS4513). Enzyme CDK8/Cyclin C (ThermoFisher, #PR7261B) was mixed with antibodies Anti-His-tag-Biotin (ThermoFisher, #PV6090), Streptavidin-Eu (ThermoFisher, #PV6025), the resulting mixture was added to plate wells (5 MKπ/well). Final concentrations of substances were as follows: CDK8/Cyclin C—5 nM, Streptavidin-Eu—3 nM, Anti-His-tag-Biotin—3 nM. Staurosporine (S4400, Sigma) was used as a reference inhibitor, and 0.1% solution of dimethyl sulphoxide (DMSO) in reaction buffer was used as a blank, the reaction buffer comprised 250 mM HEPES (pH 7.5), 50 mM MgCl2, 5 mM EGTA, and 0.05% Brij-35.
The inhibitors and controls in question were added to corresponding wells (5 μl/well). The plate was incubated at room temperature for 20 minutes. After incubating, 5 μl/well of tracer solution Alexa Fluor-647 (Kinase Tracer 236, ThermoFisher, #PV5592)) was added to the wells. Final concentration of tracer was 10 nM. Reaction buffer, instead of tracer solution, was used as a negative control. The plate was incubated for 40 minutes at 25° C., TR-FRET signal was then measured according to the manufacturer's guidelines on SPARK20 plate reader (Tecan, Switzerland), and the value was converted to the amount of kinase-bound tracer. IC50 values were calculated using SparkControl Magellan 1.2 software (Tecan, Switzerland) approximating experimental points by four-parameter logistic model with the optimization by Levenberg-Marquardt (Table 5).
(In general: Time-resolved FRET reads energy transfer from a long-lived donor to a nearby acceptor.)

The next series deals with MV4-11 cells. Briefly: Antiproliferative activity, MV4-11 cells (AlamarBlue). Format: cell-based. As to conditions: Homo sapiens, 120 h incubation, read-out: MV-4-11 IC50. The protocol:
(§1) Antiproliferative activity of CDK8 inhibitors according to the present invention was measured in a cell-based test on continuous cell cultures MV4-11 (biphenotypic myelomonocytic leukemia, ATCC® CRL-9591™), KG-1 (acute myeloid leukemia, ATCC® CCL-246™) using a vital stain AlamarBlue (ThermoFisher, #DAL1100). The cells were grown in RPMI-1640 (PanEco, #C330p) medium with addition of 10% FBS (Gibco, #16140-071); washed and resuspended in culture medium with 10% FBS (Gibco, #16140-071) in 96-well culture plates (Corning, #3599) with ≈10×10^3 cells in […] of medium per well. The compounds in question were dissolved in DMSO and diluted with a medium with 10% FBS (Gibco, #16140-071) to a final concentration ranging from 0 to 100 μM. […] of diluted compounds were then added to each well (final DMSO concentration was less than 1%) and incubated under 5% CO2 atmosphere at 37° C. for 120 h. After incubating, 15 μL/well of AlamarBlue (ThermoFisher, #DAL1100) reagent was added, contents of plates were mixed in an orbital shaker (Biosan, Latvia) and further incubated for 3-5 h at 37° C. under 5% CO2 atmosphere. Number of living cells was estimated using a microplate spectrophotometer (Tecan Infinite M200Pro, Switzerland) measuring fluorescent signal at the excitation wavelength (λEx) of 540 nm and emission wavelength (λEm) of 590 nm.
(§2) IC50 values were calculated using Magellan 7.2 software (Tecan, Switzerland) approximating experimental points by four-parameter logistic model with the optimization by Levenberg-Marquardt (Table 6).
A general note: The colour change of resazurin is a common sign of viable cells or microbes.

The next series has as its system KG-1 cells. Description: Antiproliferative activity, KG-1 cells (AlamarBlue). Format: cell-based. As to conditions: 120 h incubation. The procedure:
as §1, §2

Series [3] can be described thus: General cytotoxicity on HepG2 cells. The class given is cell-based. As to conditions: human, 72 h incubation. The protocol: The CC50 values were determined in the test for General cytotoxicity On HepG2 cells (hepatocellular carcinoma, ATCC® HB-8065™). Cells per well were seeded in 96-well plates (Corning, #3599) at a concentration ≈20×10^3 cells in 100 μL of medium and incubated for 72 h with added compounds within the range of concentrations of 200 to 0.78 μM. Cell viability was assessed using the above method.

CDK8/Cyclin C, sequence (P49336 whole entry): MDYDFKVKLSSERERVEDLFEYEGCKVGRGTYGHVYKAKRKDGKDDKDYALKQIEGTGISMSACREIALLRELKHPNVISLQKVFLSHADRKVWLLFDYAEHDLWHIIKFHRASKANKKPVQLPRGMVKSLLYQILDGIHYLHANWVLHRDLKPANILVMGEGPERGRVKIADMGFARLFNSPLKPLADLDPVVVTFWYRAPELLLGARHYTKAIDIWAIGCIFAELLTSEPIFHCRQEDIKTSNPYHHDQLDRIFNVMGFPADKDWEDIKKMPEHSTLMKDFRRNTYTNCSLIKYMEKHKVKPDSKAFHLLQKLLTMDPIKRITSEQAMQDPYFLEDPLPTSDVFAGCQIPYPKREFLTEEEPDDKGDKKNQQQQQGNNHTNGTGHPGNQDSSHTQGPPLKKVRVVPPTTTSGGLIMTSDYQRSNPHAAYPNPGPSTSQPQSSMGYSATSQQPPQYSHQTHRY
CDK8/Cyclin C, sequence (P24863 whole entry partner): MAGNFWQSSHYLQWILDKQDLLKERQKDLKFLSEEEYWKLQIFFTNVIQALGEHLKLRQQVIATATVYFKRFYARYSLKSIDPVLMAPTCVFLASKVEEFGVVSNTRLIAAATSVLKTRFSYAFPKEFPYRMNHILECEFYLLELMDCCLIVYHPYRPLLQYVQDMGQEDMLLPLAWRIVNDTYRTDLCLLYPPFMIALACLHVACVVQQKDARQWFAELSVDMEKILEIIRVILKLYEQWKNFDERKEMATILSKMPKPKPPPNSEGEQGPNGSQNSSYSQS

The Papp A→B is the apparent permeability from the apical to the basolateral side of a cell layer. By efflux ratio is commonly meant a quotient of directional permeabilities that is used to spot active efflux. The term IC50 denotes the concentration that inhibits the measured activity by half. By CC50 is commonly meant the concentration at which the toxic effect on the cells reaches its halfway point. A low value points to harm at low concentration. On to `CN(C)C(=O)Cn1cc(-c2ccc(-c3cnc(N)c4ncc(C(=O)NCC5CC5)cc34)cc2)cn1` [Compound 3.43, 8-Amino-N-(cyclopropylmethyl)-5-(4-(1-(2-(dimethylamino)-2-oxoethyl)-1H-pyrazole-4-yl)phenyl)-1,7-naphthyridine-3-carboxamide], for which the “Chemical stability in human blood plasma 4 h, %” value (from here on “Chemical stability … %”) in series [1] is on record as 100.0%. The Papp A→B at 2 h, 10 μM in series [2] was 15.7 ×10⁻⁶ cm/s. Also, the efflux ratio at 2 h, 10 μM in series [2] was 1.89. Moreover, the half-inhibitory concentration (IC50) on CDK8/Cyclin C came out at 0.88 nM; in the series on MV4-11 cells it was 0.5 nM; in the series on KG-1 cells (Homo sapiens, KG-1, 120 h), 0.2 nM. In series [3], this molecule gave a CC50 at 72 h of 68100 nM.
Take `CN1CCN(C(=O)Cn2cc(-c3ccc(-c4cnc(N)c5ncc(C(=O)NCC6CC6)cc45)cc3)cn2)CC1` [Compound 3.44, 8-amino-N-(cyclopropylmethyl)-5-(4-(1-(2-(4-methylpiperazin-1-yl)-2-oxoethyl)-1H-pyrazole-4-yl)phenyl)-1,7-naphthyridine-3-carboxamide]: the “Chemical stability … %” value in series [1] came out at 100.0%. The IC50 is 1.4 nM at CDK8/Cyclin C; 0.7 nM in the series on MV4-11 cells; 0.7 nM in the series on KG-1 cells (Homo sapiens, KG-1, 120 h). In addition, the CC50 at 72 h in series [3] turned out to be 65300 nM.
As to `CN1CCN(C(=O)c2cnc3c(N)ncc(-c4ccc(-c5cnn(CC(=O)N(C)C)c5)cc4)c3c2)CC1` [Compound 3.49 × 2HCl, 2-(4-(4-(8-amino-3-(4-methylpiperazine-1-carbonyl)-1,7-naphthyridine-5-yl)phenyl)-1H-pyrazole-1-yl)-N,N-dimethylacetamide dihydrochloride], the concentration for half-maximal inhibition (IC50) on CDK8/Cyclin C is 1.64 nM; in the series on KG-1 cells (dihydrochloride), 16 nM.
Regarding `CN1CCN(C(=O)Cn2cc(-c3ccc(-c4cnc(N)c5ncc(C(=O)N6CCN(C)CC6)cc45)cc3)cn2)CC1` [Compound 3.50, 2-(4-(4-(8-amino-3-(4-methylpiperazine-1-carbonyl)-1,7-naphthyridine-5-yl)phenyl)-1H-pyrazole-1-yl)-1-(4-methylpiperazine-1yl)ethan-1-one], the IC50 is 2.03 nM on CDK8/Cyclin C; 3.8 nM in the series with MV4-11 cells; 26.6 nM in the series on KG-1 cells (Homo sapiens, KG-1, 120 h). For the same molecule, in series [3], the CC50 at 72 h was over 100000 nM.
As to `COCCn1cc(-c2ccc(-c3cnc(N)c4ncc(C(=O)N5CCN(C)CC5)cc34)cc2)cn1` [Compound 3.51, (8-amino-5-(4-(1-(2-methoxyethyl)-1H-pyrazole-4-yl)phenyl)-1,7-naphthyridin-3-yl)(4-methylpiperazine-1-yl)methanone], in series [1], the “Chemical stability … %” value is given as 100.0%. The Papp A→B at 2 h, 10 μM in series [2] was found to be 26.2 ×10⁻⁶ cm/s. The efflux ratio at 2 h, 10 μM in series [2] turned out to be 1.88. For the same molecule, the IC50 at CDK8/Cyclin C was 1.44 nM; in the series on MV4-11 cells, 16.9 nM; with KG-1 cells (Homo sapiens, KG-1, 120 h) it was 12.9 nM. Also, in series [3], the CC50 at 72 h was over 100000 nM.
Regarding `COCCn1cc(-c2ccc(-c3cnc(N)c4ncc(C(=O)N5CCC5)cc34)cc2)cn1` [Compound 3.54, (8-amino-5-(4-(1-(2-methoxyethyl)-1H-pyrazole-4-yl)phenyl)-1,7-naphthyridin-3-yl) (azetidin-1-yl)methanone], the “Chemical stability … %” value in series [1] was found to be 94.6%. This molecule also showed a Papp A→B at 2 h, 10 μM in series [2] of 42.8 ×10⁻⁶ cm/s. Also, the efflux ratio at 2 h, 10 μM in series [2] was determined as 0.55. Besides, the half-inhibitory concentration (IC50) came out at 1.27 nM at CDK8/Cyclin C; 15.8 nM with MV4-11 cells; 12.2 nM in the series on KG-1 cells (Homo sapiens, KG-1, 120 h). The molecule further had a half-maximal cytotoxic concentration (CC50) at 72 h in series [3] of about 90000 nM.
Consider `COCCN(C)C(=O)c1cnc2c(N)ncc(-c3ccc(-c4cnn(CC(=O)N(C)C)c4)cc3)c2c1` [Compound 3.55], for which the concentration for half-maximal inhibition (IC50) is 1.24 nM at CDK8/Cyclin C and 6.5 nM in the series on KG-1 cells (Homo sapiens, KG-1, 120 h). Besides, the CC50 at 72 h in series [3] was over 100000 nM.
Consider `COCCN(C)C(=O)c1cnc2c(N)ncc(-c3ccc(-c4cnn(CC(=O)N5CCN(C)CC5)c4)cc3)c2c1` [Compound 3.56, 8-amino-N-(2-methoxyethyl)-N-methyl-5-(4-(1-(2-(4-methylpiperazine-1-yl)-2-oxoethyl)-1H-pyrazole-4-yl)phenyl)-1,7-naphthyridine-3-carboxamide], for which the IC50 amounted to 1.07 nM on CDK8/Cyclin C and 13.8 nM in the series with KG-1 cells (Homo sapiens, KG-1, 120 h). Moreover, in series [3], the CC50 at 72 h is over 100000 nM.
Turning to `COCCN(C)C(=O)c1cnc2c(N)ncc(-c3ccc(-c4cnn(CCOC)c4)cc3)c2c1` [Compound 3.57, 8-amino-N-(2-methoxyethyl)-5-(4-(1-(2-methoxyethyl)-1H-pyrazole-4-yl)phenyl)-N-methyl-1,7-naphthyridine-3-carboxamide], the IC50 at CDK8/Cyclin C came out at 2.27 nM; in the series with KG-1 cells (Homo sapiens, KG-1, 120 h), 17.1 nM. Further, the half-maximal cytotoxic concentration (CC50) at 72 h in series [3] was about 90000 nM.
